Results from patent publication US20240190888A1, “SPIRO-CONTAINING DERIVATIVE, AND PREPARATION METHOD THEREFOR AND USE THEREOF” (priority 2021, published 2024).

Legend:
TAAR1 receptor = biological target: T1, TAAR1 receptor (Homo sapiens, UniProt Q96RJ0); test: TAAR1 receptor cAMP agonist test (HEK293 cell line stably expressing TAAR1 receptor); type: cell-based; details: for EC50: cAMP agonist assay, HEK293 cells stably expressing TAAR1; for TAAR1 Max Act %: maximal activation rate relative to PEA positive control
T1 construct: expressed in transfected cells
T1 sequence (Q96RJ0 1-339): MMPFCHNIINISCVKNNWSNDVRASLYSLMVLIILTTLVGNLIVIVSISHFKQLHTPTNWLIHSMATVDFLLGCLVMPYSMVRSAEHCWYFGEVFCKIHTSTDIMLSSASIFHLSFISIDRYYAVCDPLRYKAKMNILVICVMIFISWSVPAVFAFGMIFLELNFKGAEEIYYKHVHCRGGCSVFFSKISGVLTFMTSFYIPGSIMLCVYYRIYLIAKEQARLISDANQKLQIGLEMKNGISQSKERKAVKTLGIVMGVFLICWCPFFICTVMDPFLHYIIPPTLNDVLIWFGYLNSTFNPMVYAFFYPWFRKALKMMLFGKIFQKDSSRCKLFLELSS
Description: 1.1 Experimental Materials:
The cAMP detection lit was purchased from Cisbio; the […] cell line stably expressing TAAR1 receptor was constructed by Shanghai Singing Biotechnology Co., Ltd.; IBMX was purchased from Sigma; Phenethylamine (PEA); ProxiPlate-384 well plate was purchased from PerkinElmer. HBSS was purchased from Thermo Fisher Scientific Company.
(§1) (1) Preparation of experimental buffer: 5×stimulation buffer was diluted to 1× with ddH2O, adding IBMX with a final concentration of 0.5 mM, mixing well for later use.
(2) The frozen cells were thawed quickly in a 37° C. water bath, the cell suspension was washed with HBSS buffer, centrifuging at 200×g to remove the frozen storage solution, the pellet was resuspended with an appropriate amount of experimental buffer, taking 20 μL for counting with a cell counter, and diluting to 1.5×10^6 cells/mL.
(3) 5 μL of cell suspension (1.5×10^4 cells per well) was added to the ProxiPlate-384 well plate.
(4) The compound to be tested was diluted in the experimental buffer by gradient, and 5 μL was transferred to the reaction plate using Bravo, 5 μL experimental buffer was put in each negative control well, and 5 μL PEA (final concentration 10^−2M) was put in each positive control well.
(5) Incubating at 37° C. for 1 hour.
(6) 10 ELL of detection reagent was added to the reaction plate, incubating at room temperature for 1 hour in dark.
(§2) Activation rate (activity %)=(negative control ratio-compound ratio)/(negative control ratio-positive control ratio)×100%
The EC50 values of the compounds were calculated using the four-parameter fitting model log(agonist)vs.response—Variable slope (four parameters) in GraphPad Prism.

5-HT1A receptor = biological target: T2, 5-HT1A receptor (Homo sapiens, UniProt P08908); test: 5-HT1A receptor cAMP agonist test (HEK293 cell line stably expressing 5-HT1A receptor); type: cell-based; details: for EC50: cAMP agonist assay with forskolin, HEK293 cells stably expressing 5-HT1A; for 5-HT1A Max Act %: maximal activation rate relative to Serotonin positive control
T2 construct: expressed in transfected cells
T2 sequence (P08908 1-422): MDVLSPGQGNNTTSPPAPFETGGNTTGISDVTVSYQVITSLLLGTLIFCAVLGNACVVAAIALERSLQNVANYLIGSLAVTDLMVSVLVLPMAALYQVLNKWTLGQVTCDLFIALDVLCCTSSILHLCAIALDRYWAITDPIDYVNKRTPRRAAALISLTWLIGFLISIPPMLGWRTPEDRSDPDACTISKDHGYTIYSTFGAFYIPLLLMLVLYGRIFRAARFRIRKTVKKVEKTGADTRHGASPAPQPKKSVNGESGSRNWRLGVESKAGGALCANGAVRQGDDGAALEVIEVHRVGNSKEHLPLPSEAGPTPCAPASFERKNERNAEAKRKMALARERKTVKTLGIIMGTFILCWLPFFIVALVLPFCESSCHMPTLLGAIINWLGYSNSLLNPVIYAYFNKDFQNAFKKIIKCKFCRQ
Description: 2.1 Experimental Materials:
The cAMP detection kit was purchased from Cisbio; the HEK293 cell line stably expressing 5-HT1A receptor was constructed by Shanghai Shujing Biotechnology Co., Ltd.; Serotonin, Forskolin and IBMX were purchased from Sigma; ProxiPlate-384-well plates was purchased from PerkinElmer; HBSS was purchased from Thermo Fisher Scientific.
as §1
(2) The cultured cells were digested with trypsin, and the cell suspension was washed with HBSS buffer after the digestion was terminated, centrifuging to remove the culture medium at 200×g; the precipitate was resuspended with an appropriate amount of experimental buffer, taking 20 μL for counting with a cell counter, and diluting to 0.4×10^6 cells/mL.
(3) 5 μL cell suspension (2×10^3 cells per well) was added to ProxiPlate-384 well plate.
(4) The compound to be tested was diluted in the experimental buffer by gradient, and 5 μL was transferred to the reaction plate using Bravo, 5 μL experimental buffer was put in each negative control well, and 5 μL Serotonin (final concentration 10^−6 M) was put in each positive control well.
(5) Incubating at room temperature for 15 minutes.
(6) Forskolin (final concentration 1.5×10^−7M) was added to the reaction plate using TecanD300e picoliter micro-dosing system.
(7) Incubating at room temperature for 45 minutes.
(8) 10 μL detection reagent was added to the reaction plate, incubating at room temperature for 1 hour in dark.
as §2
The EC50 values of the compounds were calculated using the four-parameter fitting model log(agouist)vs. response—Variable slope (four parameters) in Graph Pad Prism.

[1] = system: high spontaneous activity induced by MK-801; test: Inhibition of high spontaneous activity induced by MK-801 in mice; type: in vivo; details: male C57Bl/6J mice, compound p.o. 30 min before MK-801 0.3 mg/kg i.p.
Description: 3.1 Experimental Materials:
Compounds to be tested: compounds in the examples of the present application, self-made.
(§3) Experimental animals: 18-22 g male C57Bl/6J mice, purchased from Shanghai Slack Experimental Animal Co., Ltd.
3.2.1 Grouping of animals: before the start of the experiment, animals were randomly grouped according to body weight. 3.2.2 Animal adaptation: before the experiment, the mice were first adapted to the experimental environment for at least 1 hour. That is, the animals were transferred from the breeding room to the laboratory and moved freely in the cage.
Drug preparation: taking the compound to be tested, adding pure water and performing ultrasonication.
The animals were randomly divided into blank group, model group, and administration group according to body weight, 9 mice % group, and the detailed administration information is shown in the following table:
T-30 min oral administration of compound: compound to be tested or solvent (pure water) was administered orally by gavage, and put into test box (test box size length*width*height=27*27*40 cm) immediately after administration, recording the spontaneous activity of the mice within 30 minutes.
The blank control group was injected with normal saline.
3.2.4 Data Recording and Analysis.
(§4) The activities of these animals (movement distance in the test box) were automatically recorded by the camera, and analyzed with ANY MAZE software, and the ED50 values were calculated.

[2] = system: high spontaneous activity induced by PCP; test: Inhibition of high spontaneous activity induced by PCP in mice; type: in vivo; details: male C57Bl/6J mice, compound p.o. 30 min before PCP 5 mg/kg i.p.
Excerpt: Compounds to be tested: compounds of the examples of the present application, self-made.
Phencyclidine hydrochloride (PCP): purchased from Shanghai Yuansi Standard Science Technology Co., Ltd., specification: 5 g.
as §3
That is, animals were transferred from the feeding room to the laboratory, and moved freely in the cage.
The animals were randomly divided into blank group, model group, and administration group according to body weight, 9 mice/group, and the detailed administration information is shown in the following table:
T0 min intraperitoneal injection of modeling drug: 30 minutes after compound administration, the mice were taken out, and administered with PCP (5 mg/kg) by intraperitoneal injection. The blank control group was injected with pure water.
as §4

| SMILES | EC50 (TAAR1 receptor) | TAAR1 Max Act % (TAAR1 receptor) | EC50 (5-HT1A receptor) | 5-HT1A Max Act % (5-HT1A receptor) | ED50 ([1]; Mus musculus, movement distance over 150 min, read-out: ED50 (half effective dose)) | MED (minimum effective dose) [1] | MED (minimum effective dose) [2] |
| --- | --- | --- | --- | --- | --- | --- | --- |
| [2H]C([2H])([2H])NC[C@H]1OCC2(CC2)c2sccc21 [Example 32-S, (S)—N-((4′,6′-dihydrospiro[cyclopropane-1,7′-thieno[3,2-c]pyran]-4′-yl)methyl)methyl-D3-amine] | 806 nM | 97.1% |  |  |  |  |  |
| CNCC1OCC2(CC2)c2c(C)csc21 (stereo not drawn) [Example 7, 1-(3′-methyl-5′H,7′H-Spiro[cyclopropane-1,4′-thieno[2,3-c]pyran]-7′-yl)-N-methylmethylamine] |  |  | 394 nM | 93.4% |  |  |  |
| CNCC1OCC2(CCC2)c2ccsc21 (stereo not drawn) [Example 2, 1-(5′H,7′H-spiro[cyclobutane-1,4′-thieno[2,3c]pyran]-7′-yl)-N-methylmethylamine] |  |  | 257 nM | 108.9% |  |  |  |
| [2H]C([2H])([2H])NC[C@@H]1OCC2(CC2)c2sccc21 [Example 32-R, (R)—N-((4′,6′-dihydrospiro[cyclopropane-1,7′-thieno[3,2-c]pyran]-4′-yl)methyl)methyl-D3-amine] |  |  | 1670 nM | 86.3% |  |  |  |
| c1cc2c(s1)C(CN1CCC1)OCC21CC1 (stereo not drawn) [Example 23, 1-((5′H,7′H-Spiro[cyclopropane-1,4′-thieno[2,3-c]pyran]-7′-yl)methyl)azetidine] |  |  | 5510 nM | 75.5% |  |  |  |
| CNCC1OCC2(CC2)c2ccsc21 (stereo not drawn) [Example 8, 1-(5′H,7′H-Spiro[cyclopropane-1,4-thieno[2,3-c]pyran]-7′-yl)-N-methylmethylamine] | 1630 nM | 96.6% | 1540 nM | 91.6% |  |  |  |
| CNC[C@H]1OCC2(CC2)c2sccc21 (single isomer, unassigned) [Example 9-S] | 795 nM | 95.8% |  |  |  |  |  |
| CCNCC1OCC2(CC2)c2ccsc21 (stereo not drawn) [Example 16, N-((5′H,7′H-spiro[cyclopropane-1,4′-thieno[2,3-c]pyran]-7′-yl)methyl)ethylamine] |  |  | 1380 nM | 115.6% |  |  |  |
| CNC[C@@H]1OCC2(CC2)c2ccsc21 (single isomer, unassigned) [Example 8-S] | 704 nM | 96.1% | 903 nM | 90.7% | 0.36 mg/kg | 0.3 mg/kg | 0.3 mg/kg |
| CNC[C@@H]1OCC2(CC2)c2sccc21 (single isomer, unassigned) [Example 9-R] |  |  |  |  |  | 10 mg/kg | 0.1 mg/kg |
| [2H]C([2H])([2H])NCC1OCC2(CC2)c2ccsc21 (stereo not drawn) [Example 15, N-((5′H,7′H-Spiro[cyclopropane-1,4′-thieno[2,3-c]pyran]-7′-yl)methyl)methane-d3-amine] | 1730 nM | 93.3% | 2680 nM | 93.7% |  |  |  |
| CNCC1OCC2(CC2)c2sccc21 (stereo not drawn) [Example 9, 1-(4′H,6′H-spiro[cyclopropane-1,7′-thieno[3,2-c]pyran]-4′-yl)-N-methylmethylamine] | 1670 nM | 95.5% | 2440 nM | 92.7% |  |  |  |
| [2H]C([2H])([2H])NCC1OCC2(CC2)c2sccc21 (stereo not drawn) [Example 32, N-((4′,6′-dihydrospiro[cyclopropane-1,7′-thieno[3,2-c]pyran]-4′-yl)methyl)methyl-D3-amine] | 1320 nM | 97.7% | 1880 nM | 80.5% |  |  |  |
